In ChEMBL document CHEMBL1128134, “Characterization of a continuous fluorogenic assay for calpain I. Kinetic evaluation of peptide aldehydes, halomethyl ketones and (acyloxy)methyl ketones as inhibitors of the enzyme” (Bioorg Med Chem Lett, 1995):
Peptide text beside a SMILES is read from it. * marks the point of attachment. Cbz = O=C(OCc1ccccc1)*

T1: Calpain-1 catalytic subunit (Homo sapiens) (UniProt P07384)
T1 sequence (whole entry): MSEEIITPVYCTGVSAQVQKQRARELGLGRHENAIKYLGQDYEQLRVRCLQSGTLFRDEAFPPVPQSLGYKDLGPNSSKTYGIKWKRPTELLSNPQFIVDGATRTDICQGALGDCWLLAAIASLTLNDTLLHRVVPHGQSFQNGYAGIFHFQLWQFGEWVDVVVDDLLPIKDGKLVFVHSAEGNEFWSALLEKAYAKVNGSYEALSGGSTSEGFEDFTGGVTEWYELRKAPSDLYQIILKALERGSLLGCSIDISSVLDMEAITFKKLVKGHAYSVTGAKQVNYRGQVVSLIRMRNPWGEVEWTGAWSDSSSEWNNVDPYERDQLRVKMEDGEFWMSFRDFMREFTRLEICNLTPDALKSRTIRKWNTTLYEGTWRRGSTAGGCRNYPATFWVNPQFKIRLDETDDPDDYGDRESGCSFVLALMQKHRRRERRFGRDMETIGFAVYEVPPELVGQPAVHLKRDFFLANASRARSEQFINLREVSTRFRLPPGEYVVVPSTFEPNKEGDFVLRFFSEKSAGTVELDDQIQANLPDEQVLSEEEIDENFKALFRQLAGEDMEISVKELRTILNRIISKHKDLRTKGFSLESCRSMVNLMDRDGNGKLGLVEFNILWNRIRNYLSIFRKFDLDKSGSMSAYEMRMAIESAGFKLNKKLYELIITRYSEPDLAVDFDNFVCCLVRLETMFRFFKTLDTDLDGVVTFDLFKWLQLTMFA


What was measured:
Calpain 1 (Homo sapiens) = Calpain 1 (Homo sapiens) (UniProt P04632+P07384); assay: Apparent second order rate constant for inhibition of calpain-1 by fluorogenic assay.; type: protein-complex assay
[1] = molecular target: T1, Calpain-1 catalytic subunit (Homo sapiens); assay: Compound was tested for apparent second order rate constant for inhibition of calpain I in an endpoint (non-continuous) calpain assay
[2] = Ratio of rate of catalysis to Michaelis-Menten constant was determined
[3] = molecular target: T1, Calpain-1 catalytic subunit (Homo sapiens); assay: Rate of catalysis as a measure of ability to serve as substrate of Calpain
Calpain 1 = Calpain 1 (Homo sapiens, UniProt P07384); assay: Inhibition of Calpain 1 by [3H]acetyl-casein assay; type: protein-complex assay
Calpain 1, sequence (P04632 whole entry, one chain of several): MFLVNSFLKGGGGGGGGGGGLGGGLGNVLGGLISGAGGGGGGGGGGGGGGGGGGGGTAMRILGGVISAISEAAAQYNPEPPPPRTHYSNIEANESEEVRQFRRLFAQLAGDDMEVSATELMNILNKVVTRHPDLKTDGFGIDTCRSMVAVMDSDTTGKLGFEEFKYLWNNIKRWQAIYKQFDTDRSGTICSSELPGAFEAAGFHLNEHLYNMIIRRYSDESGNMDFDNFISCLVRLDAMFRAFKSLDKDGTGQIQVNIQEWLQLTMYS

[4] = substrate: Cc1cc(=O)oc2cc(NC(=O)[C@H](CCCN=C(N)N)NC(=O)[C@H](CC(C)C)NC(=O)OCc3ccccc3)ccc12; assay: (§1) Michaelis-Menten kinetics value as a measure of ability to serve as substrate of Calpain
[5] = substrate: Cc1cc(=O)oc2cc(NC(=O)[C@H](NC(=O)[C@H](CC(C)C)NC(=O)[C@H](CC(C)C)NC(=O)CCC(=O)O)C(C)C)ccc12; assay: as §1
[6] = substrate: Cc1cc(=O)oc2cc(NC(=O)[C@@H](CCCCN)NC(=O)[C@H](CC(C)C)NC(=O)[C@@H](NC(=O)OC(C)(C)C)C(C)C)ccc12; assay: as §1
[7] = substrate: COc1ccc2cccc(NC(=O)[C@@H](CCCN=C(N)N)NC(=O)[C@H](CC(C)C)NC(=O)[C@@H](NC(=O)OCc3ccccc3)C(C)C)c2c1; assay: as §1
[8] = substrate: CC(C)C[C@H](NC(=O)OCc1ccccc1)C(=O)N[C@@H](CCCN=C(N)N)C(=O)Nc1ccc2c(C(F)(F)F)cc(=O)oc2c1; assay: as §1
[9] = substrate: Cc1cc(=O)oc2cc(NC(=O)[C@@H](Cc3ccc(O)cc3)NC(=O)[C@H](NC(=O)[C@H](CC(C)C)NC(=O)[C@H](CC(C)C)NC(=O)CCC(=O)O)C(C)C)ccc12; assay: as §1
[10] = substrate: COc1ccc2cccc(NC(=O)[C@H](CCCN=C(N)N)NC(=O)[C@H](CC(C)C)NC(=O)OCc3ccccc3)c2c1; assay: as §1

Molecule | Ratio [2] | k cat [3] | other results
CC(C)C[C@H](NC(=O)[C@H]1O[C@@H]1C(=O)O)C(=O)NCCCCN=C(N)N | – | – | k obs / 1 (Calpain 1 (Homo sapiens)): 2500 M⁻¹ s⁻¹; k obs / 1 [1]: 7500 M⁻¹ s⁻¹
Cc1cc(=O)oc2cc(NC(=O)[C@@H](Cc3ccc(O)cc3)NC(=O)[C@H](NC(=O)[C@H](CC(C)C)NC(=O)[C@H](CC(C)C)NC(=O)CCC(=O)O)C(C)C)ccc12 | 262 M⁻¹ s⁻¹ | 0.42 s⁻¹ | –
COc1ccc2cccc(NC(=O)[C@H](CCCN=C(N)N)NC(=O)[C@H](CC(C)C)NC(=O)OCc3ccccc3)c2c1 | 1400 M⁻¹ s⁻¹ | 0.52 s⁻¹ | –
Cc1cc(=O)oc2cc(NC(=O)[C@@H](CCCCN)NC(=O)[C@H](CC(C)C)NC(=O)[C@@H](NC(=O)OC(C)(C)C)C(C)C)ccc12 | 83 M⁻¹ s⁻¹ | 0.49 s⁻¹ | –
Cc1cc(=O)oc2cc(NC(=O)[C@H](CCCN=C(N)N)NC(=O)[C@H](CC(C)C)NC(=O)OCc3ccccc3)ccc12 | 105 M⁻¹ s⁻¹ | 0.02 s⁻¹ | –
CC(C)C[C@H](NC(=O)OCc1ccccc1)C(=O)N[C@@H](CCCN=C(N)N)C(=O)Nc1ccc2c(C(F)(F)F)cc(=O)oc2c1 | 153 M⁻¹ s⁻¹ | 0.07 s⁻¹ | –
Cc1cc(=O)oc2cc(NC(=O)[C@H](NC(=O)[C@H](CC(C)C)NC(=O)[C@H](CC(C)C)NC(=O)CCC(=O)O)C(C)C)ccc12 | 141 M⁻¹ s⁻¹ | 0.29 s⁻¹ | –
CC(C)[C@H](NC(=O)OCc1ccccc1)C(=O)N[C@H](C=O)Cc1ccc(O)cc1 (Cbz-Val-Tyr-aldehyde) | – | – | IC50 (Calpain 1): 25 nM
Calpain-1 catalytic subunit (Homo sapiens), P07384 (protein) MSEEIITPVYCTGVSAQVQKQRARELGLGRHENAIKYLGQDYEQLRVRCLQSGTLFRDEAFPPVPQSLGYKDLGPNSSKTYGIKWKRPTELLSNPQFIVDGATRTDICQGALGDCWLLAAIASLTLNDTLLHRVVPHGQSFQNGYAGIFHFQLWQFGEWVDVVVDDLLPIKDGKLVFVHSAEGNEFWSALLEKAYAKVNGSYEALSGGSTSEGFEDFTGGVTEWYELRKAPSDLYQIILKALERGSLLGCSIDISSVLDMEAITFKKLVKGHAYSVTGAKQVNYRGQVVSLIRMRNPWGEVEWTGAWSDSSSEWNNVDPYERDQLRVKMEDGEFWMSFRDFMREFTRLEICNLTPDALKSRTIRKWNTTLYEGTWRRGSTAGGCRNYPATFWVNPQFKIRLDETDDPDDYGDRESGCSFVLALMQKHRRRERRFGRDMETIGFAVYEVPPELVGQPAVHLKRDFFLANASRARSEQFINLREVSTRFRLPPGEYVVVPSTFEPNKEGDFVLRFFSEKSAGTVELDDQIQANLPDEQVLSEEEIDENFKALFRQLAGEDMEISVKELRTILNRIISKHKDLRTKGFSLESCRSMVNLMDRDGNGKLGLVEFNILWNRIRNYLSIFRKFDLDKSGSMSAYEMRMAIESAGFKLNKKLYELIITRYSEPDLAVDFDNFVCCLVRLETMFRFFKTLDTDLDGVVTFDLFKWLQLTMFA | – | – | Km [4]: 190 µM; Km [5]: 200 µM; Km [6]: 5900 µM; Km [7]: 100 µM; Km [8]: 460 µM; Km [9]: 160 µM; Km [10]: 370 µM
